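Assay format: 96-well plates, 48-hour exposure. Abbreviation: GI50, concentration required for 50% inhibition of growth. TGI marks complete inhibition of growth.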
Columns and labels:
Test in all cases: NCI anticancer screen, dose series, 48 h
[1] = test system: SF-268 CNS
[2] = test system: BT-549 breast
[3] = test system: COLO 205 colon
[4] = test system: MDA-MB-231 breast
[5] = test system: NCI-H226 lung
[6] = test system: HT29 colon
[7] = test system: SW-620 colon
[8] = test system: DU-145 prostate
[9] = test system: SK-MEL-2 melanoma
[10] = test system: UO-31 renal
[11] = test system: OVCAR-4 ovarian
[12] = test system: HOP-92 NSCLC
[13] = test system: 786-0 renal
[14] = test system: OVCAR-3 ovarian
[15] = test system: MALME-3M melanoma
[16] = test system: PC-3 prostate
[17] = test system: CAKI-1 renal
[18] = test system: K-562 leukemia
[19] = test system: SF-295 CNS
[20] = test system: OVCAR-5 ovarian
[21] = test system: A549 NSCLC
[22] = test system: NCI-H522 lung
[23] = test system: SR leukemia
[24] = test system: NCI-H23 lung
[25] = test system: SK-MEL-28 melanoma
[26] = test system: SNB-19 CNS
[27] = test system: KM12 colon
[28] = test system: NCI-H460 lung
[29] = test system: U251 CNS
[30] = test system: RPMI-8226 leukemia
[31] = test system: MOLT-4 leukemia
[32] = test system: T-47D breast
[33] = test system: OVCAR-8 ovarian
[34] = test system: SN12C renal
[35] = test system: HS 578T breast
[36] = test system: IGROV1 ovarian
[37] = test system: HCT-15 colon
[38] = test system: HOP-62 NSCLC
[39] = test system: LOX IMVI melanoma
[40] = test system: CCRF-CEM leukemia
[41] = test system: ACHN renal
[42] = test system: SK-MEL-5 melanoma
[43] = test system: NCI/ADR-RES ovarian
[44] = test system: MDA-MB-435
[45] = test system: UACC-62 melanoma
[46] = test system: EKVX NSCLC
[47] = test system: RXF 393 renal
[48] = test system: SK-OV-3 ovarian
[49] = test system: HCT-116 colon
[50] = test system: M14 melanoma
[51] = test system: TK-10 renal
[52] = test system: MCF7 breast

O=C1C(Cl)=C(Nc2cccc(O)c2)C(=O)N1CCc1ccccc1
GI50 [1]: 17 µM | TGI [1]: 42.2 µM | GI50 [2]: 17.9 µM | TGI [2]: 47.1 µM | GI50 [3]: 33.2 µM | TGI [3]: > 100 µM | GI50 [4]: 23.3 µM | TGI [4]: 44.4 µM | GI50 [5]: 22 µM | TGI [5]: 45.6 µM | GI50 [6]: 24.3 µM | TGI [6]: 82.5 µM | GI50 [7]: 30.9 µM | TGI [7]: 77.5 µM | GI50 [8]: 15.3 µM | TGI [8]: 32.5 µM | GI50 [9]: 14.5 µM | TGI [9]: 33.7 µM | GI50 [10]: 16.7 µM | TGI [10]: 36.8 µM | GI50 [11]: 20.1 µM | TGI [11]: 55.3 µM | GI50 [12]: 15.9 µM | TGI [12]: 36.4 µM | GI50 [13]: 19.2 µM | TGI [13]: 36.6 µM | GI50 [14]: 15.4 µM | TGI [14]: 34.3 µM | GI50 [15]: 16.2 µM | TGI [15]: 33 µM | GI50 [16]: 22.3 µM | TGI [16]: 62.7 µM | GI50 [17]: 22.5 µM | TGI [17]: 56.3 µM | GI50 [18]: 16.8 µM | TGI [18]: 63.9 µM | GI50 [19]: 21.8 µM | TGI [19]: 46.6 µM | GI50 [20]: 20.7 µM | TGI [20]: 46.8 µM | GI50 [21]: 20.6 µM | TGI [21]: 46.4 µM | GI50 [22]: 13.2 µM | TGI [22]: 29.2 µM | GI50 [23]: 4.61 µM | TGI [23]: 64.3 µM | GI50 [24]: 17.7 µM | TGI [24]: 36.4 µM | GI50 [25]: 19.8 µM | TGI [25]: 40.8 µM | GI50 [26]: 22.6 µM | TGI [26]: 49.4 µM | GI50 [27]: 15.5 µM | TGI [27]: 34 µM | GI50 [28]: 18 µM | TGI [28]: 39.8 µM | GI50 [29]: 19.1 µM | TGI [29]: 42.1 µM | GI50 [30]: 5.03 µM | TGI [30]: 37.6 µM | GI50 [31]: 9.4 µM | TGI [31]: 59 µM | GI50 [32]: 40.5 µM | TGI [32]: > 100 µM | GI50 [33]: 21.5 µM | TGI [33]: 51.1 µM | GI50 [34]: 16 µM | TGI [34]: 32.6 µM | GI50 [35]: 17.5 µM | TGI [35]: 40.5 µM | GI50 [36]: 15 µM | TGI [36]: 35.4 µM | GI50 [37]: 22.4 µM | TGI [37]: 57.8 µM | GI50 [38]: 19.2 µM | TGI [38]: 38.4 µM | GI50 [39]: 16.9 µM | TGI [39]: 39.6 µM | GI50 [40]: 12.6 µM | TGI [40]: 69.4 µM | GI50 [41]: 22.9 µM | TGI [41]: 47.5 µM | GI50 [42]: 20.2 µM | TGI [42]: 38 µM | GI50 [43]: 20.1 µM | TGI [43]: 49 µM | GI50 [44]: 15.7 µM | TGI [44]: 37.1 µM | GI50 [45]: 13.9 µM | TGI [45]: 29.1 µM | GI50 [46]: 19.3 µM | TGI [46]: 40.9 µM | GI50 [47]: 25.9 µM | TGI [47]: 71.4 µM | GI50 [48]: 32.1 µM | TGI [48]: > 100 µM | GI50 [49]: 24.3 µM | TGI [49]: 73.3 µM | GI50 [50]: 17.7 µM | TGI [50]: 37.9 µM | GI50 [51]: 23.1 µM | TGI [51]: 48.4 µM | GI50 [52]: 14.4 µM | TGI [52]: 33.6 µM

From PubChem BioAssay (NCI)
